This assay concerns the target human TRPM8 (Homo sapiens (Human), UniProt Q7Z2W7). Briefly: TRPM8 inhibition assay (menthol-induced calcium influx, FDSS). Type of assay: cell-based. Conditions: HEK293 cells stably expressing human TRPM8; 100 μmol/L menthol; Fura-2AM calcium signal; read-out: TRPM8 Blocking Test (IC50/nmol/L). As to the method: The functional activity of a test compound was determined by measuring change in intracellular calcium concentration using a calcium sensitive fluorescent dye. The change in fluorescent signal was measured by the cell imaging technology by Hamamatsu Photonics's Functional Drug Screening System (FDSS).
HEK293 cells stably expressing human TRPM8 were grown in a flask. On assay day, the culture medium was removed from the flask, and cells were washed with phosphate-buffered saline (PBS) and harvested with PBS containing 2 mmol/L of ethylenediaminetetraacetic acid disodium salt (EDTA-2Na). […] Subsequently, suspended 20,000 to 50,000 cells per well were incubated with a test compound (at varying concentrations) in each well at 37° C. for 20 minutes. Change in intracellular calcium concentration evoked by 100 μmol/L of menthol was measured for 2 minutes using FDSS. […] The concentration-response curve was generated using the average of quadruplicate wells for each data point.
human TRPM8, sequence (Q7Z2W7 whole entry): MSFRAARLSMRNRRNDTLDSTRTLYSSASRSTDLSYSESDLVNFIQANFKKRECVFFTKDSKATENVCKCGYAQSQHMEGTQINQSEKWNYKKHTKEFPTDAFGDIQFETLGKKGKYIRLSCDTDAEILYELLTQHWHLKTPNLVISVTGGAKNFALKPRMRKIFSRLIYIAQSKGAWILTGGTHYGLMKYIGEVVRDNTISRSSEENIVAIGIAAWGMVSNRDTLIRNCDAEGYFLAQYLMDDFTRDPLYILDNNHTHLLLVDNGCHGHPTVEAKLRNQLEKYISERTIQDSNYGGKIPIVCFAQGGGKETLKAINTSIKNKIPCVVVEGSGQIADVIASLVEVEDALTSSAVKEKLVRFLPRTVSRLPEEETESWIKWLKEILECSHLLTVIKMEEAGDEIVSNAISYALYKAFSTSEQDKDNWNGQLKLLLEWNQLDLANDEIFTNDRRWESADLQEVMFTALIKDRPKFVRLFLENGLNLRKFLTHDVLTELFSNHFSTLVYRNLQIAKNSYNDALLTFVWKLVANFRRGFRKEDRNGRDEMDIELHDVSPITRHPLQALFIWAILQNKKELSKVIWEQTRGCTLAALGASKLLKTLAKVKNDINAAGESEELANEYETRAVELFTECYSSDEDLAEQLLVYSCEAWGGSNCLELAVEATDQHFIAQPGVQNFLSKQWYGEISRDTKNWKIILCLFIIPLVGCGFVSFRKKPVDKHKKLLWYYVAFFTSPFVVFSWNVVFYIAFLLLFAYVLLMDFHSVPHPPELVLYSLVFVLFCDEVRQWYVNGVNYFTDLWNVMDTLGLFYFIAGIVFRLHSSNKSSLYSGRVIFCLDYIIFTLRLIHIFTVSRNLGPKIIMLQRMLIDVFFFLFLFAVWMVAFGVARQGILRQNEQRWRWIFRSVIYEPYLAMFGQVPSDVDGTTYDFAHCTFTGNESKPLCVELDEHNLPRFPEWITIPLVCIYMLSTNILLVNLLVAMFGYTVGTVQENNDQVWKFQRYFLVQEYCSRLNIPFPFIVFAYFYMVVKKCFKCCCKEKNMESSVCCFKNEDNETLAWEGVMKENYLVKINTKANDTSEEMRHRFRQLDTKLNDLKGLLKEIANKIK
Turning to `O=S(=O)(c1ccc(-c2nnn[nH]2)cc1)N(Cc1ccc(OC(F)(F)F)cc1)c1ncc2ccccc2c1C1CC1` [Example 1, N-(4-cyclopropylisoquinolin-3-yl)-4-(1H-tetrazol-5-yl)-N-[4-(trifluoromethoxy)benzyl]benzenesulfonamide], the IC50 is 0.3 nmol/L. Next, `O=S(=O)(c1ccc(-c2nnn[nH]2)nc1)N(Cc1ccc(OC(F)(F)F)cc1)c1ncc2ccccc2c1C1CC1` [Example 2, N-(4-cyclopropylisoquinolin-3-yl)-6-(1H-tetrazol-5-yl)-N-[4-(trifluoromethoxy)benzyl]pyridine-3-sulfonamide]: 0.7 nmol/L; `O=S(=O)(c1ccc(-c2nnn[nH]2)cn1)N(Cc1ccc(OC(F)(F)F)cc1)c1ncc2ccccc2c1C1CC1` [Example 3, N-(4-cyclopropylisoquinolin-3-yl)-5-(1H-tetrazol-5-yl)-N-[4-(trifluoromethoxy)benzyl]pyridine-2-sulfonamide]: 7.6 nmol/L. Regarding `O=c1[nH]nnn1-c1ccc(S(=O)(=O)N(Cc2ccc(OC(F)(F)F)cc2)c2ncc3ccccc3c2C2CC2)cc1` [Example 4, N-(4-cyclopropylisoquinolin-3-yl)-4-(5-oxo-4,5-dihydro-1H-tetrazol-1-yl)-N-[4-(trifluoromethoxy)benzyl]benzenesulfonamide], the IC50 turned out to be 1.1 nmol/L. As for `O=S(=O)(c1ccc(-c2ncn[nH]2)cc1)N(Cc1ccc(OC(F)(F)F)cc1)c1ncc2ccccc2c1C1CC1` [Example 5, N-(4-cyclopropylisoquinolin-3-yl)-4-(2H-1,2,4-triazol-3-yl)-N-[4-(trifluoromethoxy)benzyl]benzenesulfonamide], the IC50 is 3.4 nmol/L. `O=S(=O)(c1ccc(-c2ncn[nH]2)nc1)N(Cc1ccc(OC(F)(F)F)cc1)c1ncc2ccccc2c1C1CC1` [Example 6, N-(4-cyclopropylisoquinolin-3-yl)-6-(1H-1,2,4-triazol-5-yl)-N-[4-(trifluoromethoxy)benzyl]pyridine-3-sulfonamide]: the IC50 came out at 1.7 nmol/L. Next, `O=c1[nH]c(-c2ccc(S(=O)(=O)N(Cc3ccc(OC(F)(F)F)cc3)c3ncc4ccccc4c3C3CC3)cc2)no1` [Example 7, N-(4-cyclopropylisoquinolin-3-yl)-4-(5-oxo-4,5-dihydro-1,2,4-oxadiazol-3-yl)-N-[4-(trifluoromethoxy)benzyl]benzenesulfonamide]: 1 nmol/L. Next, `O=c1[nH]c(-c2ccc(S(=O)(=O)N(Cc3ccc(OC(F)(F)F)cc3)c3ncc4ccccc4c3C(F)(F)F)cc2)no1` [Example 8, 4-(5-oxo-4,5-dihydro-1,2,4-oxadiazol-3-yl)-N-[4-(trifluoromethoxy)benzyl]-N-[4-(trifluoromethyl)isoquinolin-3-yl]benzenesulfonamide]: 2.3 nmol/L.

For `O=c1[nH]c(-c2ccc(S(=O)(=O)N(Cc3ccc(OC(F)(F)F)cc3)c3ncc4ccccc4c3C3CC3)cn2)no1` [Example 9, N-(4-cyclopropylisoquinolin-3-yl)-6-(5-oxo-4,5-dihydro-1,2,4-oxadiazol-3-yl)-N-[4-(trifluoromethoxy)benzyl]pyridine-3-sulfonamide], the IC50 is 1.1 nmol/L. Under `CC(=O)NCc1ccc(S(=O)(=O)N(Cc2ccc(OC(F)(F)F)cc2)c2ncc3ccccc3c2C2CC2)cc1` [Example 10, N-[4-({(4-cyclopropylisoquinolin-3-yl)[4-(trifluoromethoxy)benzyl]amino}sulfonyl)benzyl]acetamide] stands 23.9 nmol/L; under `CS(=O)(=O)NCc1ccc(S(=O)(=O)N(Cc2ccc(OC(F)(F)F)cc2)c2ncc3ccccc3c2C2CC2)cc1` [Example 11, N-(4-cyclopropylisoquinolin-3-yl)-4-{[(methylsulfonyl)amino]methyl}-N-[4-(trifluoromethoxy)benzyl]benzenesulfonamide], 29.5 nmol/L; under `O=S(=O)(c1ccc(CNS(=O)(=O)C(F)(F)F)cc1)N(Cc1ccc(OC(F)(F)F)cc1)c1ncc2ccccc2c1C1CC1` [Example 12, N-(4-cyclopropylisoquinolin-3-yl)-N-[4-(trifluoromethoxy)benzyl]-4-({[(trifluoromethyl)sulfonyl]amino}methyl)benzenesulfonamide], 40.2 nmol/L. Under `O=c1[nH][nH]c2cc(S(=O)(=O)N(Cc3ccc(OC(F)(F)F)cc3)c3ncc4ccccc4c3C3CC3)ccc12` [Example 13, N-(4-cyclopropylisoquinolin-3-yl)-3-oxo-N-[4-(trifluoromethoxy)benzyl]-2,3-dihydro-1H-indazole-6-sulfonamide] stands 4.3 nmol/L. Under `Cc1c(N(Cc2ccc(OC(F)(F)F)cc2)S(=O)(=O)c2ccc(-c3nnn[nH]3)cc2)nc(C2CC2)c2ccccc12` [Example 14] stands 0.7 nmol/L.

As to `O=S(=O)(c1ccc(-c2nnn[nH]2)cc1)N(Cc1ccc(OC(F)(F)F)cc1)c1ncc2ccccc2c1C(F)(F)F` [Example 15], the IC50 turned out to be 2 nmol/L. Next, `O=S(=O)(c1ccc(-c2nnn[nH]2)nc1)N(Cc1ccc(OC(F)(F)F)cc1)c1ncc2ccccc2c1C(F)(F)F` [Example 16]: 1.6 nmol/L. Under `Cc1cc(S(=O)(=O)N(Cc2ccc(OC(F)(F)F)cc2)c2ncc3ccccc3c2C2CC2)ccc1-c1nnn[nH]1` [Example 17] stands 0.3 nmol/L.

Take `O=S(=O)(c1ccc(-c2nnn[nH]2)cc1)N(Cc1ccc(C(F)(F)F)cn1)c1ncc2ccccc2c1C1CC1` [Example 18]: the IC50 is 0.9 nmol/L.

Regarding `O=S(=O)(c1ccc(-c2ncn[nH]2)cc1)N(Cc1ccc(OC(F)(F)F)cc1)c1ncc2ccccc2c1C(F)(F)F` [Example 20], the IC50 came out at 3.2 nmol/L. Next, `Cc1n[nH]c(-c2ccc(S(=O)(=O)N(Cc3ccc(OC(F)(F)F)cc3)c3ncc4ccccc4c3C(F)(F)F)cc2)n1` [Example 21]: 1.1 nmol/L; `Cc1n[nH]c(-c2ccc(S(=O)(=O)N(Cc3ccc(OC(F)(F)F)cc3)c3ncc4ccccc4c3C3CC3)cc2)n1` [Example 22]: 0.6 nmol/L; `Cc1cc(S(=O)(=O)N(Cc2ccc(OC(F)(F)F)cc2)c2ncc3ccccc3c2C2CC2)ccc1-c1ncn[nH]1` [Example 23]: 0.5 nmol/L. In the case of `O=S(=O)(c1ccc(-c2ncn[nH]2)cc1)N(Cc1ccc(C(F)(F)F)cn1)c1ncc2ccccc2c1C1CC1` [Example 24], the IC50 was 1.2 nmol/L.

With `Cc1n[nH]c(-c2ccc(S(=O)(=O)N(Cc3ccc(C(F)(F)F)cn3)c3ncc4ccccc4c3C3CC3)cc2)n1` [Example 25], the IC50 is 0.7 nmol/L.

Regarding `Cc1cc(S(=O)(=O)N(Cc2ccc(C(F)(F)F)cn2)c2ncc3ccccc3c2C2CC2)ccc1-c1ncn[nH]1` [Example 26], the IC50 was determined as 1 nmol/L. Next, `Cc1n[nH]c(-c2ccc(S(=O)(=O)N(Cc3ccc(C(F)(F)F)cn3)c3ncc4ccccc4c3C3CC3)cc2C)n1` [Example 27]: 0.8 nmol/L. Next, `O=S(=O)(c1ccc(-c2ncn[nH]2)nc1)N(Cc1ccc(OC(F)(F)F)cc1)c1ncc2ccccc2c1C(F)(F)F` [Example 28]: 3.5 nmol/L; `Cc1n[nH]c(-c2ccc(S(=O)(=O)N(Cc3ccc(OC(F)(F)F)cc3)c3ncc4ccccc4c3C(F)(F)F)cn2)n1` [Example 29]: 2.2 nmol/L. Take `Cc1n[nH]c(-c2ccc(S(=O)(=O)N(Cc3ccc(OC(F)(F)F)cc3)c3ncc4ccccc4c3C3CC3)cn2)n1` [Example 30]: the IC50 amounted to 1.1 nmol/L.

On to `O=c1[nH]c(-c2ccc(S(=O)(=O)N(Cc3ccc(C(F)(F)F)cn3)c3ncc4ccccc4c3C3CC3)cc2)no1` [Example 31], for which the IC50 worked out at 1.1 nmol/L.

As for `Cc1c(N(Cc2ccc(OC(F)(F)F)cc2)S(=O)(=O)c2ccc(-c3noc(=O)[nH]3)cc2)nc(C2CC2)c2ccccc12` [Example 32], the IC50 was determined as 2.7 nmol/L. Next, `O=c1[nH]c(-c2ccc(S(=O)(=O)N(Cc3ccc(OC(F)(F)F)cc3)c3ncc4ccccc4c3C(F)(F)F)cn2)no1` [Example 33]: 3.6 nmol/L; `Cc1cc(S(=O)(=O)N(Cc2ccc(OC(F)(F)F)cc2)c2ncc3ccccc3c2C2CC2)ccc1-c1noc(=O)[nH]1` [Example 34]: 0.5 nmol/L; `O=c1[nH]c(-c2ccc(S(=O)(=O)N(Cc3ccc(OC(F)(F)F)cc3)c3ncc4ccccc4c3C3CC3)nc2)no1` [Example 35]: 9.6 nmol/L. As for `Cc1cc(S(=O)(=O)N(Cc2ccc(OC(F)(F)F)cc2)c2ncc3ccccc3c2C2CC2)ccc1C(=O)O` [Example 36, 4-({(4-cyclopropylisoquinolin-3-yl)[4-(trifluoromethoxy)benzyl]amino}sulfonyl)-2-methylbenzoic acid], the IC50 amounted to 1.4 nmol/L. Next, `Cc1cc(S(=O)(=O)N(Cc2ccc(C(F)(F)F)cn2)c2ncc3ccccc3c2C2CC2)ccc1C(=O)O` [Example 37, 4-[((4-cyclopropylisoquinolin-3-yl){[5-(trifluoromethyl)pyridin-2-yl]methyl}amino)sulfonyl]-2-methylbenzoic acid]: 9.5 nmol/L; `Cc1cc(C(=O)O)ccc1S(=O)(=O)N(Cc1ccc(OC(F)(F)F)cc1)c1ncc2ccccc2c1C1CC1` [Example 38, 4-({(4-cyclopropylisoquinolin-3-yl)[4-(trifluoromethoxy)benzyl]amino}sulfonyl)-3-methylbenzoic acid]: 0.7 nmol/L; `COCc1cc(S(=O)(=O)N(Cc2ccc(OC(F)(F)F)cc2)c2ncc3ccccc3c2C2CC2)ccc1C(=O)O` [Example 39, 4-({(4-cyclopropylisoquinolin-3-yl)[4-(trifluoromethoxy)benzyl]amino}sulfonyl)-2-(methoxymethyl)benzoic acid]: 1.4 nmol/L.

These data come from patent US9487488B2, “Sulfonamide compound” (MITSUBISHI TANABE PHARMA CORPORATION, priority 2012, dated 2016).
